Experimental data reported in patent US10457709B2, “Antimicrobial peptides, their variants and uses” (priority 2015, dated 2019).
Read-outs that look alike come from different tables or passages of the source. Square brackets hold non-standard residues; d marks the D form. Peptide text beside a SMILES is read from it.

How the values were obtained:
[1] = system: Enterobacter cloacae clinical strains; type: cell-based; set-up: Minimum inhibitory concentration: unit: μg/ml; conditions: microdilution, Muller Hinton broth-cation adjusted, 0.02% BSA, 0.2% acetic acid
Description: (§1) Minimum inhibition concentrations (MICs) were determined against Escherichia coli (ATCC 25922), Staphylococcus aureus (ATCC 25923), Klebsiella pneumoniae (ATCC 10031) and Pseudomonas aeruginosa (ATCC 27853). Also clinical strains of E. coli, K. pneumoniae, E. cloacae, P. aeruginosa, Serratia marcescens, Proteus mirabilis, S. pneumoniae, Acinetobacter baumannii, A. johnsonii and S. aureus were used for MICs assays. Additionally, clinical strains of yeast including Candida albicans, C. glabrata, C. parapsilosis and C. quillermondiae were used. The susceptibility of these microorganisms to Chain peptides were determined using micro broth dilution assay. Colonies of the respective microorganism from Muller Hinton (MH) agar plates incubated overnight were suspended in MH broth media and final concentration of microorganism was adjusted to 5.0×10^5 cfu/ml. An aliquot of 10 μl of each Chain peptide, or gentamicin, tetracycline as reference antibiotics were added in differing concentrations along with 90 μl of bacterial suspension to 96 well polypropylene plates and incubated at 37° C. for 20 to 24 hours. Concentrations of Chain peptides and reference antibiotics ranged from 0.125 to 128 μg/ml and the MICs were recorded as the lowest concentration with no visual growth of bacteria. Similarly, antifungal MICs were tested in Potato dextrose broth.
(§2) Clinical strains of yeasts including Candida albicans, C. glabrata, C. parapsilosis and C. quillermondiae were also tested with the 12 Chain peptides. The minimum inhibitory concentration (MICs) varied between these peptides and are presented in Tables 4a, 4b, 4c and 5a, 5b, 5c. Peptides Chain 105, 201 and 308 are broad spectrum antimicrobials with MICs between 0.5-32 μg/ml against all the bacteria and yeasts tested, except Serratia marcescens and Proteus mirabilis, against which the MICs were between 64-128 μg/ml. Peptide Chain 306 has narrow spectrum activity against E. coli at 1 μg/ml and for the rest of the bacterial strains at >32 μg/ml (FIG. 10c).

[2] = system: Proteus mirabilis clinical strains; type: cell-based; set-up: Minimum inhibitory concentration: unit: μg/ml; conditions: microdilution, Muller Hinton broth-cation adjusted, 0.02% BSA, 0.2% acetic acid
Description: as §1, §2

[3] = system: Serratia marcescens clinical strains; type: cell-based; set-up: Minimum inhibitory concentration: unit: μg/ml; conditions: microdilution, Muller Hinton broth-cation adjusted, 0.02% BSA, 0.2% acetic acid
Description: as §1, §2

[4] = system: Staphylococcus aureus clinical strains; type: cell-based; set-up: Minimum inhibitory concentration: unit: μg/ml; conditions: microdilution, Muller Hinton broth-cation adjusted, 0.02% BSA, 0.2% acetic acid
Description: as §1, §2

[5] = system: Streptococcus pneumoniae clinical strains; type: cell-based; set-up: Minimum inhibitory concentration: unit: μg/ml; conditions: microdilution, Muller Hinton broth-cation adjusted, 0.02% BSA, 0.2% acetic acid
Description: as §1, §2

[6] = system: Candida albicans clinical strains; experiment: MIC, clinical yeast strains; type: cell-based; set-up: unit: μg/ml
Procedure, shortened: (§3)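 MIC = lowest concentration without visual growth after 20–24 h at 37° C. Microbroth dilution, 5.0×10^5 cfu/ml, 0.125–128 μg/ml range; MH broth for bacteria, potato dextrose broth for yeasts.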

[7] = system: C. glabrata clinical strains; experiment: MIC, clinical yeast strains; type: cell-based, Candida glabrata; set-up: unit: µg/ml
Procedure, shortened: as §3

[8] = system: C. parapsilosis clinical strains; experiment: MIC, clinical yeast strains; type: cell-based, Candida parapsilosis; set-up: unit: µg/ml
Procedure, shortened: as §3

[9] = system: C. quillermondiae clinical strains; experiment: MIC, clinical yeast strains; type: cell-based, Candida quillermondiae; set-up: unit: μg/ml; conditions: C. quillermondiae clinical yeast strain 1
Procedure, shortened: as §3

[10] = system: Escherichia coli clinical strains; type: cell-based; conditions: microdilution, Muller Hinton broth-cation adjusted, 0.02% BSA, 0.2% acetic acid
Description: as §1, §2

[11] = system: Klebsiella pneumoniae clinical strains; type: cell-based; conditions: microdilution, Muller Hinton broth-cation adjusted, 0.02% BSA, 0.2% acetic acid
Description: as §1, §2

[12] = system: Pseudomonas aeruginosa clinical strains; type: cell-based; conditions: microdilution, Muller Hinton broth-cation adjusted, 0.02% BSA, 0.2% acetic acid
Description: as §1, §2

CC[C@@H](C)[C@@H](N)C(=O)N[C@H](Cc1c[nH]c2ccccc12)C(=O)N[C@H](CCCCN)C(=O)N[C@H](CCCNC(=N)N)C(=O)N[C@H](Cc1ccccc1)C(=O)N[C@H](CCCNC(=N)N)C(=O)N[C@H](CC(C)C)C(=O)N[C@H](Cc1ccccc1)C(=O)N[C@H](CCCCN)C(=O)N[C@H](CCCCN)C(=O)N[C@H](Cc1c[nH]c2ccccc12)C(=O)O [Chain304D] (H-[dI][dW][dK][dR][dF][dR][dL][dF][dK][dK][dW]-OH)
Minimum inhibitory concentration ([1]; Enterobacter cloacae clinical strain 1): 64 | Minimum inhibitory concentration ([1]; Enterobacter cloacae clinical strain 2): 64 | Minimum inhibitory concentration ([1]; Enterobacter cloacae clinical strain 3): 128 | Minimum inhibitory concentration ([1]; Enterobacter cloacae clinical strain 4): 128 | Minimum inhibitory concentration ([1]; Enterobacter cloacae clinical strain 5): 32 | Minimum inhibitory concentration ([2]; Proteus mirabilis clinical strain 1): >128 | Minimum inhibitory concentration ([2]; Proteus mirabilis clinical strain 2): >128 | Minimum inhibitory concentration ([2]; Proteus mirabilis clinical strain 3): >128 | Minimum inhibitory concentration ([2]; Proteus mirabilis clinical strain 4): >128 | Minimum inhibitory concentration ([2]; Proteus mirabilis clinical strain 5): >128 | Minimum inhibitory concentration ([3]; Serratia marcescens clinical strain 1): >128 | Minimum inhibitory concentration ([3]; Serratia marcescens clinical strain 2): >128 | Minimum inhibitory concentration ([3]; Serratia marcescens clinical strain 3): >128 | Minimum inhibitory concentration ([3]; Serratia marcescens clinical strain 4): >128 | Minimum inhibitory concentration ([3]; Serratia marcescens clinical strain 5): >128 | Minimum inhibitory concentration ([4]; Staphylococcus aureus clinical strain 1): 32 | Minimum inhibitory concentration ([4]; Staphylococcus aureus clinical strain 2): 32 | Minimum inhibitory concentration ([4]; Staphylococcus aureus clinical strain 3): 16 | Minimum inhibitory concentration ([4]; Staphylococcus aureus clinical strain 4): 16 | Minimum inhibitory concentration ([4]; Staphylococcus aureus clinical strain 5): 16 | Minimum inhibitory concentration ([5]; Streptococcus pneumoniae clinical strain 1): 128 | Minimum inhibitory concentration ([5]; Streptococcus pneumoniae clinical strain 2): 128 | Minimum inhibitory concentration ([5]; Streptococcus pneumoniae clinical strain 3): 128 | Minimum inhibitory concentration ([5]; Streptococcus pneumoniae clinical strain 4): 128 | Minimum inhibitory concentration ([5]; Streptococcus pneumoniae clinical strain 5): 64 | Minimum inhibitory concentration ([6]; Candida albicans clinical yeast strain 1): 16 | Minimum inhibitory concentration ([6]; Candida albicans clinical yeast strain 2): 16 | Minimum inhibitory concentration ([6]; Candida albicans clinical yeast strain 3): 16 | Minimum inhibitory concentration ([6]; Candida albicans clinical yeast strain 4): 16 | Minimum inhibitory concentration ([6]; Candida albicans clinical yeast strain 5): 32 | Minimum inhibitory concentration ([7]; C. glabrata clinical yeast strain 1): 16 | Minimum inhibitory concentration ([7]; C. glabrata clinical yeast strain 2): 16 | Minimum inhibitory concentration ([7]; C. glabrata clinical yeast strain 3): 8 | Minimum inhibitory concentration ([7]; C. glabrata clinical yeast strain 4): 64 | Minimum inhibitory concentration ([8]; C. parapsilosis clinical yeast strain 1): 64 | Minimum inhibitory concentration ([8]; C. parapsilosis clinical yeast strain 2): 64 | Minimum inhibitory concentration ([8]; C. parapsilosis clinical yeast strain 3): 32 | Minimum inhibitory concentration ([8]; C. parapsilosis clinical yeast strain 4): 16 | Minimum inhibitory concentration [9]: 16 | Minimum inhibitory concentration ([10]; Escherichia coli clinical strain 1): 1 | Minimum inhibitory concentration ([10]; Escherichia coli clinical strain 2): 16 | Minimum inhibitory concentration ([10]; Escherichia coli clinical strain 3): 16 | Minimum inhibitory concentration ([10]; Escherichia coli clinical strain 4): 32 | Minimum inhibitory concentration ([10]; Escherichia coli clinical strain 5): 32 | Minimum inhibitory concentration ([11]; Klebsiella pneumoniae clinical strain 1): >128 | Minimum inhibitory concentration ([11]; Klebsiella pneumoniae clinical strain 2): >128 | Minimum inhibitory concentration ([11]; Klebsiella pneumoniae clinical strain 3): >128 | Minimum inhibitory concentration ([11]; Klebsiella pneumoniae clinical strain 4): >128 | Minimum inhibitory concentration ([11]; Klebsiella pneumoniae clinical strain 5): 64 | Minimum inhibitory concentration ([12]; Pseudomonas aeruginosa clinical strain 1): 32 | Minimum inhibitory concentration ([12]; Pseudomonas aeruginosa clinical strain 2): 64 | Minimum inhibitory concentration ([12]; Pseudomonas aeruginosa clinical strain 3): 64 | Minimum inhibitory concentration ([12]; Pseudomonas aeruginosa clinical strain 4): 64 | Minimum inhibitory concentration ([12]; Pseudomonas aeruginosa clinical strain 5): 16
